The values below come from PubChem BioAssay AID1378 (University of Pittsburgh Molecular Library Screening Center, 2008).

The experiment concerns the target RAC-alpha serine/threonine-protein kinase (Homo sapiens) (UniProt P31749). The experiment can be described thus: AKT1 kinase inhibition by PKD hits, dose response, selectivity assay for PKD inhibitor project, biochemical, 57K library, IC50 (AID 1378).

The source made the active and inactive calls. No rule for the calls is given here.

In general, IC50 refers to the concentration at which inhibition is half-maximal.

Sequence of RAC-alpha serine/threonine-protein kinase (Homo sapiens) (P31749 whole entry, looked up): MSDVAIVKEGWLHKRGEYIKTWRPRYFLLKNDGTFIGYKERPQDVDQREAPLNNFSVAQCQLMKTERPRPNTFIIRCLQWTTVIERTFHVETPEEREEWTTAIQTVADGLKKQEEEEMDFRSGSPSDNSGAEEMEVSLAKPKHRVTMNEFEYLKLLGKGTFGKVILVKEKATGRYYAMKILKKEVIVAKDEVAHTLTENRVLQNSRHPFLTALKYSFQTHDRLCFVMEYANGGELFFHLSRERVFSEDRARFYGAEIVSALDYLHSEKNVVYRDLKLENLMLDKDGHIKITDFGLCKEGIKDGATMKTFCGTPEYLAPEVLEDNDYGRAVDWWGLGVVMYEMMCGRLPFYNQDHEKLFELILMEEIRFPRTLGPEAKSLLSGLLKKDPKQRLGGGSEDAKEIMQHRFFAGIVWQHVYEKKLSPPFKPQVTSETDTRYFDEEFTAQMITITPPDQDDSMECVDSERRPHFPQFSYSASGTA

As to `C/C(=N\Nc1ncc(Cl)cc1Cl)c1ccccn1`, the IC50 is > 100 µM (inactive).
